Ratio IC50 and IC50 data for 12 compounds are collected here from ChEMBL document CHEMBL1949584, “Design and synthesis of novel inhibitors of human kynurenine aminotransferase-I” (Bioorg Med Chem Lett, 2012).

The first assay addresses T1, Kynurenine--oxoglutarate transaminase 1 (Homo sapiens) (UniProt Q16773).
T1 sequence (whole entry): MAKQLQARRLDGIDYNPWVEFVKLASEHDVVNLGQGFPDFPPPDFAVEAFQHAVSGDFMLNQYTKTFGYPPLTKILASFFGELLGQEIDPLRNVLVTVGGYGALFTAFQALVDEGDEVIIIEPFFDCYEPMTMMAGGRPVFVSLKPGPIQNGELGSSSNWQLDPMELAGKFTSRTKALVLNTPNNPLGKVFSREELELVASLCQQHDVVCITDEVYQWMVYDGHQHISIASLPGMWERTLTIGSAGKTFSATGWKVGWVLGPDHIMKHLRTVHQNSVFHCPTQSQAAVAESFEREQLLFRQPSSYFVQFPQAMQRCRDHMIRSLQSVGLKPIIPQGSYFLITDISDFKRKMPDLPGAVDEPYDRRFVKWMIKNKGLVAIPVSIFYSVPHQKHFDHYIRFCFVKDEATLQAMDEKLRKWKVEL
Nature of the assay: Ratio of compound IC50 to indole-3-propionic acid IC50 for human recombinant KAT1.
`CCOC(=O)/C(CCCC(=O)O)=N\Nc1cccc(Cl)c1`: the Ratio IC50 stood at 7. Same read-out and setting: as for `CCOC(=O)/C(CCCC(=O)O)=N\Nc1ccc(Cl)cc1`, the figure is 7.

The target in the next assay is T2, Kynurenine--oxoglutarate transaminase 1 (Homo sapiens, UniProt Q16773).
T2 sequence (Q16773 whole entry): T1 sequence (whole entry)
Nature of the assay: Inhibition of human recombinant KAT1 after 20 mins by RP-HPLC analysis.
One may read the IC50 as the concentration that inhibits the measured activity by half. As to `O=C(O)CCc1c(C(=O)O)[nH]c2ccc([N+](=O)[O-])cc12`, the IC50 was determined as 666 µM.

As to `CCOC(=O)/C(CCCC(=O)O)=N\Nc1cccc(Cl)c1`, the IC50 was found to be 20 µM.

On to `O=C(O)CCc1c(C(=O)O)[nH]c2ccc(Br)cc12`, for which the IC50 worked out at 271 µM. Same read-out and setting: with `CCOC(=O)/C(CCCC(=O)O)=N\Nc1ccc(C)cc1` the figure was 33 µM; with `CCOC(=O)/C(CCCC(=O)O)=N\Nc1ccc(OC)cc1`, 43 µM; with `CCOC(=O)/C(CCCC(=O)O)=N\Nc1ccc(Br)cc1`, 21 µM. Still for that read-out and setting: as for `Cc1ccc2[nH]c(C(=O)O)c(CCC(=O)O)c2c1`, the figure is more than 1000 µM; as for `COc1ccc2[nH]c(C(=O)O)c(CCC(=O)O)c2c1`, more than 6000 µM; as for `CCOC(=O)/C(CCCC(=O)O)=N\Nc1ccc([N+](=O)[O-])cc1`, 179 µM. Regarding `CCOC(=O)/C(CCCC(=O)O)=N\Nc1ccc(Cl)cc1`, the IC50 turned out to be 20 µM.

Consider `O=C(O)CCc1c(C(=O)O)[nH]c2ccc(Cl)cc12`, for which the IC50 was determined as 293 µM.

Turning to `CCOC(=O)/C(CCCC(=O)O)=N\Nc1ccc(I)cc1`, the half-maximal inhibitory concentration (IC50) was 34 µM.
